Results from PubChem BioAssay (NCI).
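Test compounds were applied to cells in 96-well plates for 48 hours at 5 doses. TGI is the concentration that stops growth completely.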 Where a SMILES comes first, the peptide text is derived from it. [ ]: non-standard residue; d: D form. The star is where a group is joined. NMeV = CN[C@H](C(=O)O)C(C)C; X29 = COc1ccc(CN*)c(OC)c1; Octanoyl = CCCCCCCC(=O)*; dNMeA = CN[C@H](C)C(=O)O

Key:
Test in all cases: NCI-60 cell line screen, 48 h
HCT-116 colon = tested on: HCT-116 colon
786-0 renal = tested on: 786-0 renal
SK-MEL-28 melanoma = tested on: SK-MEL-28 melanoma
BT-549 breast = tested on: BT-549 breast
KM12 colon = tested on: KM12 colon
SK-MEL-5 melanoma = tested on: SK-MEL-5 melanoma
UO-31 renal = tested on: UO-31 renal
SNB-75 CNS = tested on: SNB-75 CNS
SNB-19 CNS = tested on: SNB-19 CNS
OVCAR-4 ovarian = tested on: OVCAR-4 ovarian
SK-MEL-2 melanoma = tested on: SK-MEL-2 melanoma
SF-295 CNS = tested on: SF-295 CNS
A549 NSCLC = tested on: A549 NSCLC
DU-145 prostate = tested on: DU-145 prostate
CAKI-1 renal = tested on: CAKI-1 renal
NCI/ADR-RES ovarian = tested on: NCI/ADR-RES ovarian
MDA-MB-231 breast = tested on: MDA-MB-231 breast
HOP-62 NSCLC = tested on: HOP-62 NSCLC
SK-OV-3 ovarian = tested on: SK-OV-3 ovarian

## CCN1C(=O)c2cc(OC)c(OC)cc2C(=O)C12OC(=O)c1cc3c(cc12)OCO3 (stereo not drawn)
HCT-116 colon
  TGI: > 100 µM
786-0 renal
  TGI: 53.7 µM
SK-MEL-28 melanoma
  TGI: > 100 µM
BT-549 breast
  TGI: > 100 µM
KM12 colon
  TGI: > 100 µM
SK-MEL-5 melanoma
  TGI: > 100 µM
UO-31 renal
  TGI: > 100 µM
SNB-75 CNS
  TGI: 48.5 µM
SNB-19 CNS
  TGI: > 100 µM
OVCAR-4 ovarian
  TGI: > 100 µM
SK-MEL-2 melanoma
  TGI: 49.9 µM
SF-295 CNS
  TGI: > 100 µM
A549 NSCLC
  TGI: > 100 µM
DU-145 prostate
  TGI: 88.4 µM
CAKI-1 renal
  TGI: > 100 µM
NCI/ADR-RES ovarian
  TGI: > 100 µM
MDA-MB-231 breast
  TGI: > 100 µM
HOP-62 NSCLC
  TGI: > 100 µM

## O=C1C=CC2(C=C1)O[C@H](Cc1ccccc1)[C@@H](Cc1ccccc1)O2
786-0 renal
  TGI: […]
SK-MEL-28 melanoma
  TGI: 1.71 µM
SK-OV-3 ovarian
  TGI: 13.7 µM
BT-549 breast
  TGI: 0.563 µM
KM12 colon
  TGI: 4.51 µM
SK-MEL-5 melanoma
  TGI: 1.76 µM
UO-31 renal
  TGI: 0.69 µM
SNB-75 CNS
  TGI: 7.23 µM
SNB-19 CNS
  TGI: 6.47 µM
OVCAR-4 ovarian
  TGI: 1.69 µM
SK-MEL-2 melanoma
  TGI: 3.33 µM
SF-295 CNS
  TGI: 5.15 µM
A549 NSCLC
  TGI: 18.7 µM
DU-145 prostate
  TGI: 5.89 µM
CAKI-1 renal
  TGI: 2.27 µM
NCI/ADR-RES ovarian
  TGI: 1.11 µM
MDA-MB-231 breast
  TGI: 5.44 µM
HOP-62 NSCLC
  TGI: 3.63 µM

## CC1(/C=C/CCSc2ccccc2)CC(=O)C2CC1C2(C)C (stereo not drawn)
HCT-116 colon
  TGI: > 100 µM
786-0 renal
  TGI: > 54.6 µM
SK-MEL-28 melanoma
  TGI: > 100 µM
SK-OV-3 ovarian
  TGI: > 100 µM
BT-549 breast
  TGI: 42.1 µM
KM12 colon
  TGI: 54.4 µM
SK-MEL-5 melanoma
  TGI: 23 µM
UO-31 renal
  TGI: 43.5 µM
SNB-75 CNS
  TGI: > 100 µM
SNB-19 CNS
  TGI: > 100 µM
OVCAR-4 ovarian
  TGI: > 100 µM
SK-MEL-2 melanoma
  TGI: > 55.9 µM
SF-295 CNS
  TGI: > 100 µM
A549 NSCLC
  TGI: > 100 µM
DU-145 prostate
  TGI: > 100 µM
CAKI-1 renal
  TGI: > 82 µM
NCI/ADR-RES ovarian
  TGI: > 61.8 µM
MDA-MB-231 breast
  TGI: > 100 µM
HOP-62 NSCLC
  TGI: > 100 µM

## COC(=O)[C@H](CCSC)NC(=O)N[C@H](C)c1ccccc1
HCT-116 colon
  TGI: > 100 µM
786-0 renal
  TGI: > 100 µM
SK-MEL-28 melanoma
  TGI: > 100 µM
SK-OV-3 ovarian
  TGI: > 100 µM
BT-549 breast
  TGI: > 100 µM
KM12 colon
  TGI: > 100 µM
SK-MEL-5 melanoma
  TGI: > 100 µM
UO-31 renal
  TGI: > 100 µM
SNB-75 CNS
  TGI: > 100 µM
SNB-19 CNS
  TGI: > 100 µM
OVCAR-4 ovarian
  TGI: > 100 µM
SK-MEL-2 melanoma
  TGI: > 100 µM
SF-295 CNS
  TGI: > 100 µM
A549 NSCLC
  TGI: > 100 µM
DU-145 prostate
  TGI: > 100 µM
CAKI-1 renal
  TGI: > 100 µM
NCI/ADR-RES ovarian
  TGI: > 100 µM
MDA-MB-231 breast
  TGI: > 100 µM
HOP-62 NSCLC
  TGI: > 100 µM

## CCCCCCCC(=O)N[C@H](C(=O)N[C@H](C(=O)N(C)[C@H](C(=O)N1CCC[C@H]1C(=O)N(C)[C@H](C)C(=O)NCc1ccc(OC)cc1OC)C(C)C)C(C)C)C(C)C (Octanoyl-VV[NMeV]P[dNMeA]-X29)
HCT-116 colon
  TGI: > 50.1 µM
786-0 renal
  TGI: > 100 µM
SK-MEL-28 melanoma
  TGI: > 68.2 µM
SK-OV-3 ovarian
  TGI: > 100 µM
BT-549 breast
  TGI: > 61.2 µM
KM12 colon
  TGI: > 100 µM
SK-MEL-5 melanoma
  TGI: 13 µM
UO-31 renal
  TGI: > 100 µM
SNB-75 CNS
  TGI: > 100 µM
SNB-19 CNS
  TGI: > 100 µM
OVCAR-4 ovarian
  TGI: > 79.9 µM
SK-MEL-2 melanoma
  TGI: 42.3 µM
SF-295 CNS
  TGI: > 88.7 µM
A549 NSCLC
  TGI: 99 µM
DU-145 prostate
  TGI: > 100 µM
CAKI-1 renal
  TGI: > 86.3 µM
NCI/ADR-RES ovarian
  TGI: > 100 µM
MDA-MB-231 breast
  TGI: 35.5 µM
HOP-62 NSCLC
  TGI: > 100 µM
